Reference: paper PMC12299463, “Cladolosides of Groups S and T: Triterpene Glycosides from the Sea Cucumber Cladolabes schmeltzii with Unique Sulfation; Human Breast Cancer Cytotoxicity and QSAR” (Marine Drugs, 2025)

How the values were obtained:
[1] = system: MCF-7 human breast cancer cells; test: cells; assay type: cell-based; details: for IC50: MTT assay, MCF-7, read-out: Cytotoxicity, IC50, MCF-7;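 for all read-outs here: IC50 values, including those behind the selectivity ratio, derive from formazan absorbance at 570 nm, tested in triplicate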
[2] = system: MCF-10A non-tumor mammary epithelial cell line; test: in vitro; assay type: cell-based, human; details: MCF-10A; for IC50: MTT assay, read-out: Cytotoxicity, IC50, MCF-10A
[3] = system: T-47D human breast cancer cells; test: cells; assay type: cell-based; details: for IC50: MTT assay, T-47D, read-out: Cytotoxicity, IC50, T-47D; for Selectivity Index (SI), T-47D: ratio of IC50 for healthy (MCF-10A) and T-47D cells;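 for all read-outs here: cell viability read as absorbance of formazan dye at 570 nm, each experiment run in triplicate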
[4] = system: MDA-MB-231 triple-negative breast cancer cells; test: cells; assay type: cell-based, human; details: for IC50: MTT assay, MDA-MB-231, read-out: Cytotoxicity, IC50, MDA-MB-231; for Selectivity Index (SI), MDA-MB-231: ratio of IC50 for healthy (MCF-10A) and MDA-MB-231 cells
human erythrocytes = test: Hemolytic activity against human erythrocytes; assay type: cell-based; details: for ED50, Erythrocytes (hemolytic activity): 1 h at 37 °C
Method: A total of 450 g of human blood (B(III) Rh+) was used to obtain erythrocytes by centrifuging three times for 5 min with phosphate-buffered saline (PBS) (pH 7.4) at 4 °C on a centrifuge LABOFUGE 400R (Heraeus, Hanau, Germany). Ice-cold PBS (pH 7.4) was used for resuspension of erythrocyte residue to a final optical density of 1.5 at 700 nm. Then, 20 µL of tested compound solutions or control (cucumarioside A0-1 [15]) were added to 180 µL of erythrocyte suspension in V-bottom 96-well plates and incubated for 1 h at 37 °C. After centrifugation (900 g, 10 min, laboratory centrifuge LMC-3000 (Biosan, Riga, Latvia)), 100 µL of supernatant was transferred into new flat plates. The values of erythrocyte lysis were measured on microplate photometer Multiskan FC (Thermo Fisher Scientific, Waltham, MA, USA) at λ = 570 nm as hemoglobin concentration in supernatant. […] All the experiments were carried out in triple repetitions, p < 0.05.

SMILES | IC50 [1] | IC50 [2] | IC50 [3] | IC50 [4] | Selectivity Index (SI), MDA-MB-231 [4] | Hemolytic (membranolytic) activity, in words (human erythrocytes) | ED50, Erythrocytes (hemolytic activity) (human erythrocytes; listed as G (25)) | ED50, Erythrocytes (hemolytic activity) (human erythrocytes; listed as cladoloside G (25)) | Toxicity to normal mammary cells MCF-10A, in words [2] | ED50, Erythrocytes (hemolytic activity) (human erythrocytes) | Selectivity Index (SI), MCF-7 ([1]; ratio of IC50 for healthy (MCF-10A) and MCF-7 cells) | Selectivity Index (SI), T-47D [3] | ED50, Erythrocytes (hemolytic activity) (human erythrocytes; listed as I1 (28)) | ED50, Erythrocytes (hemolytic activity) (human erythrocytes; listed as cladoloside I1 (28)) | ED50, Erythrocytes (hemolytic activity) (human erythrocytes; listed as K1 (31)) | ED50, Erythrocytes (hemolytic activity) (human erythrocytes; listed as cladoloside K1 (31))
C=C(C)CC[C@@H](OC(C)=O)[C@]1(C)OC(=O)C23CC=C4[C@@H](CC[C@H]5C(C)(C)[C@@H](O[C@@H]6OC[C@@H](O[C@@H]7OC[C@@H](O)[C@H](O[C@@H]8O[C@H](CO)[C@@H](O)[C@H](OC)[C@H]8O)[C@H]7O)[C@H](O)[C@H]6O[C@@H]6O[C@H](C)[C@@H](O[C@@H]7OC[C@@H](O)[C@H](O[C@@H]8O[C@H](CO)[C@@H](O)[C@H](OC)[C@H]8O)[C@H]7O)[C@H](O)[C@H]6O)CC[C@]45C)[C@]2(C)C[C@H](OC(C)=O)[C@@H]31 (stereo partly drawn) [Cladoloside G (25), cladoloside G] | > 20 µM | > 20 µM | > 20 µM | 3.95 ± 0.38 µM | >5.06 | high activity | 0.35 ± 0.04 µM | 0.35 µM |  |  |  |  |  |  |  | 
CO[C@@H]1[C@@H](O)[C@H](O[C@@H]2[C@@H](O)[C@H](O[C@@H]3CO[C@@H](O[C@H]4CC[C@]5(C)C6=CCC78C(=O)O[C@@](C)([C@@H](CCC(C)C)OC(C)=O)[C@H]7[C@@H](OC(C)=O)C[C@@]8(C)[C@@H]6CC[C@H]5C4(C)C)[C@H](O[C@@H]4O[C@H](C)[C@@H](O[C@@H]5OC[C@@H](O)[C@H](O[C@@H]6O[C@H](CO)[C@@H](O)[C@H](OC)[C@H]6O)[C@H]5O)[C@H](O)[C@H]4O)[C@H]3O)O[C@H](C)[C@H]2O)O[C@H](CO)[C@H]1O (stereo partly drawn) [Cladoloside H1 (26), Cladoloside H1] | 15.9 ± 1.14 µM | > 20 µM | 13.2 ± 0.72 µM | 2.47 ± 0.32 µM |  |  |  |  | non-toxic | 0.21 ± 0.02 µM |  |  |  |  |  | 
CO[C@@H]1[C@@H](O)[C@H](O[C@@H]2[C@@H](O)[C@H](O[C@H]3[C@H](O)[C@@H](O)[C@H](O[C@H]4[C@H](O[C@H]5CC[C@]6(C)C7=CCC89C(=O)O[C@@](C)([C@@H](CCC(C)C)OC(C)=O)[C@H]8[C@@H](OC(C)=O)C[C@@]9(C)[C@@H]7CC[C@H]6C5(C)C)OC[C@@H](O[C@@H]5O[C@H](CO)[C@@H](O)[C@H](O)[C@H]5O)[C@@H]4O)O[C@@H]3C)OC[C@H]2O)O[C@H](COS(=O)(=O)[O-])[C@H]1O.[Na+] (stereo partly drawn) [Cladoloside I1 (28), cladoloside I1] | 11.2 ± 1.02 µM | 13.4 ± 0.92 µM | 9.91 ± 0.68 µM | 3.02 ± 0.28 µM | 4.45 |  |  |  |  |  | 1.20 | 1.36 | 1.72 ± 0.10 µM | 1.72 µM |  | 
C=C(C)CCC[C@]1(C)OC(=O)C23CC=C4[C@@H](CC[C@H]5C(C)(C)[C@@H](O[C@@H]6OC[C@@H](O[C@@H]7O[C@H](CO)[C@@H](O)[C@H](O[C@@H]8O[C@H](COS(=O)(=O)[O-])[C@@H](O)[C@H](OC)[C@H]8O)[C@H]7O)[C@H](O)[C@H]6O[C@@H]6O[C@H](C)[C@@H](O[C@@H]7OC[C@@H](O)[C@H](O)[C@H]7O)[C@H](O)[C@H]6O)CC[C@]45C)[C@]2(C)CC(=O)[C@@H]31.[Na+] (stereo partly drawn) [Cladoloside J1 (30), Cladoloside J1] | > 20 µM | > 20 µM | > 20 µM | 6.18 ± 0.54 µM | >3.24 |  |  |  |  | 1.10 ± 0.10 µM |  |  |  |  |  | 
CO[C@@H]1[C@@H](O)[C@H](O[C@@H]2[C@@H](O)[C@H](O[C@@H]3CO[C@@H](O[C@H]4CC[C@]5(C)C6=CCC78C(=O)O[C@@](C)([C@@H](CCC(C)C)OC(C)=O)[C@H]7[C@@H](OC(C)=O)C[C@@]8(C)[C@@H]6CC[C@H]5C4(C)C)[C@H](O[C@@H]4O[C@H](C)[C@@H](O[C@@H]5OC[C@@H](O)[C@H](O[C@@H]6O[C@H](COS(=O)(=O)[O-])[C@@H](O)[C@H](OC)[C@H]6O)[C@H]5O)[C@H](O)[C@H]4O)[C@H]3O)O[C@H](CO)[C@H]2O)O[C@H](CO)[C@H]1O.[Na+] (stereo partly drawn) [Cladoloside K1 (31), cladoloside K1] | > 20 µM | > 20 µM | 12.1 ± 1 µM | 5.83 ± 0.41 µM |  |  |  |  |  |  |  | >1.65 |  |  | 0.31 ± 0.02 µM | 0.31 µM
